Experimental data published in patent US10028970B2, “Composition comprising cashew apple extract” (NATUREX, priority 2011, dated 2018).

Test: Thermal degradation kinetics of CAE in water at 100° C. (HPLC)
Assay type: physicochemical
Conditions: CAE 50 g/L in deionised water
Description: The thermal degradation kinetics of CAE in water was investigated at 100° C. CAE was dissolved in deionised water at the concentration of 50 g/L and the solution was well homogenized. Volumes of 4 ml of this solution were placed in glass tubes, sealed, and placed in a mineral oil bath at 100° C. At predetermined intervals: 0, 10, 20, 30, 45, 60, 90, and 120 min, sample tubes were removed from the mineral oil bath and rapidly cooled in ice. For the analysis, 1 ml of each sample was mixed with 4 ml of HPLC grade methanol, homogenized, and filtrated on 0.45 μm HPLC filter. Then, 20 μL of the solution was analyzed in HPLC. The phytochemical composition of the samples was measured by reversed phase liquid chromatography using a C-18 column (ACE, 250×4.6 mm, 5 μm) at 280 nm. The areas under peak of the major components of CAE were measured in the different samples representing different time points of at 100° C.

incubation time after which the amount in the extract was divided by 2: 30 min
SMILES: O=C(/C=C/c1ccccc1)O[C@@H]1O[C@H](CO)[C@@H](O)[C@H](O)[C@H]1O (relative stereo) [1-O-trans-cinnamoyl-beta-D-glucoside, 1-O-trans-cinnamoyl-beta-D-glucopyranose]
amount remaining in the extract after 120 min of incubation (120 min): almost completely disappeared from the extract
